Data taken from ChEMBL document CHEMBL1201862, “PubChem BioAssay data set” (2004).
Activity calls are given as the source filed them.

How the values were obtained:
[1] = molecular target: FAD-linked sulfhydryl oxidase ALR (Homo sapiens, UniProt P55789); test: inhibitors of human ALR sulfhydryl oxidase, dose response, biochemical, H2O2 detection, luminescence, cherry-pick (AID 493248)
[2] = tested on: Streptococcus sp. 'group A'; test: growth inhibition of control SK(-) GAS strain, dose response, counter-screen for streptokinase expression inhibitor project, luminescence, kanamycin, BacTiterGlo, confirmation (AID 1900); format: functional, organism-based
Streptococcus = test: Group A Streptococcus viability loss, dose response, counter-screen for streptokinase expression inhibitor project, luminescence, BacTiterGlo (AID 1915); format: functional, organism-based;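 further: potency for reduction of bacterial viability or growth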
[3] = inhibitors of SNCA 5'UTR-driven reporter translation, confirmation, H4 neuroglioma cells, luminescence (AID 1988); format: functional, cell-based
[4] = inhibitors of firefly luciferase expression or activity, dose response, H4 neuroglioma cells, luminescence (AID 1990); format: functional, cell-based
[5] = Luminescence Cell-Based Dose Response HTS to Identify Inhibitors of 5'UTR Stem-Loop Driven Prion Protein mRNA Translation in H4 Neuroglioblastoma Cells. [Related pubchem assays: 1827 (Project Summary), 1813 (Primary HTS)]; format: functional
[6] = molecular target: T1, Short transient receptor potential channel 4 (Mus musculus, UniProt Q9QUQ5); test: mouse TRPC4 channel activators, dose response, cell-based, HEK293 TRPC4/mu-opioid, Fluo-4 calcium (AID 434937); format: functional
T1 sequence (Q9QUQ5 whole entry): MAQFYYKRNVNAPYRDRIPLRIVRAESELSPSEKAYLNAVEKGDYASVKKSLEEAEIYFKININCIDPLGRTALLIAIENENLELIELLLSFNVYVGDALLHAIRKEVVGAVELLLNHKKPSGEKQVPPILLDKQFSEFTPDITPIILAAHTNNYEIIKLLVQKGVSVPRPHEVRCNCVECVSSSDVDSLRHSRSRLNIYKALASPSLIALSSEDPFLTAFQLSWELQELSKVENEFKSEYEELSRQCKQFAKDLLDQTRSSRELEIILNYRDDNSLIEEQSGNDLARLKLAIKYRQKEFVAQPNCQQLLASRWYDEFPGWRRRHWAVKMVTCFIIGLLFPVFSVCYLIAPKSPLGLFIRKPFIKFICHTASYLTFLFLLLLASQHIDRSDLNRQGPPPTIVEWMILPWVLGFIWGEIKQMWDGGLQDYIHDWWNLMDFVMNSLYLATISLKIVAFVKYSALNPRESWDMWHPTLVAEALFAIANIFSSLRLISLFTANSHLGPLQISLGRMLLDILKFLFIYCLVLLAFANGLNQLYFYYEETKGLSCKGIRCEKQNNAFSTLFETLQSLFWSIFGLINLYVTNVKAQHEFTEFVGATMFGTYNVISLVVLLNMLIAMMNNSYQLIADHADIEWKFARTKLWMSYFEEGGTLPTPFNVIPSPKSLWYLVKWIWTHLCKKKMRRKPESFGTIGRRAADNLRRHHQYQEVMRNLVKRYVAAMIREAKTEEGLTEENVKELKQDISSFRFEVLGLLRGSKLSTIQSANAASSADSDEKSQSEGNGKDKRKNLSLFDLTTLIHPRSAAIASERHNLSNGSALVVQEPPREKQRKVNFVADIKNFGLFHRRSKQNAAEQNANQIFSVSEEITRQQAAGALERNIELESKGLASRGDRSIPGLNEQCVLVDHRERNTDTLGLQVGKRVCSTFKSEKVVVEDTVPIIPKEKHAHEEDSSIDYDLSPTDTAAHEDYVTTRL

Genome polyprotein = Genome polyprotein (dengue virus type 2, UniProt P29990); test: Dengue-2 NS5 methyltransferase inhibitors, primary screen, biochemical, confirmation dose response (AID 588689); format: functional
H9c2 = test: cells; format: functional, cell-based; conditions: Rattus norvegicus, H9c2, Myocardium;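 further: confirmatory concentration-response retest of ultra-high-throughput screening hits for modulation of myocardial damage; cell death induced by hydrogen peroxide oxidative stress; compound pretreatment for 60 min then peroxide exposure for 2 h; potency is for protecting the cells against peroxide damage rather than for killing them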
[7] = inhibitors of intracellular T. cruzi replication, confirmation, NIH3T3 host cells, beta-gal luminescence (AID 2044); format: functional, cell-based;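 further: intracellular parasites grown in NIH/3T3 mouse fibroblasts as host cells; luminescent beta-galactosidase reporter signal from transgenic T. cruzi replicating inside host cells; inhibitors lower the luminescence signal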
[8] = cytotoxicity toward NIH3T3 fibroblasts, dose response, counter-screen, cell-based, ATP luminescence, mouse fibroblasts (AID 2010); format: functional;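 further: cells exposed to compound for about 90 hours before reading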
[9] = C. albicans growth with fluconazole, confirmation, fluorescence, retest (AID 2467); format: functional, cell-based
[10] = NIH-3T3 fibroblast cytotoxicity, dose response, cytotoxicity control, cell-based, fluorescence, Alamar Blue, secondary assay (AID 2327); format: functional;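 further: NIH-3T3 mouse fibroblasts cultured with fluconazole at 8 µg/mL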
Vero = test: cells; format: functional; conditions: Chlorocebus sabaeus
[11] = molecular target: Glucose-6-phosphate 1-dehydrogenase (Homo sapiens, UniProt P11413); test: human G6PD enzyme inhibitors, dose response, selectivity assay for P. falciparum G6PD inhibitor project, biochemical, fluorescence (AID 504792); format: functional
Cytochrome P450 2C9 = Cytochrome P450 2C9 (Homo sapiens, UniProt P11712)
Cytochrome P450 2D6 = Cytochrome P450 2D6 (Homo sapiens, UniProt P10635);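 further: CYP2D6 member of a cytochrome P450 panel assay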
[12] = molecular target: T2, Replicative DNA helicase DnaB (Mycobacterium tuberculosis, UniProt P9WMR3); test: DnaB intein splicing inhibitors, dose response, biochemical, cell-free fluorescence (AID 449749); format: functional
T2 sequence (P9WMR3 whole entry): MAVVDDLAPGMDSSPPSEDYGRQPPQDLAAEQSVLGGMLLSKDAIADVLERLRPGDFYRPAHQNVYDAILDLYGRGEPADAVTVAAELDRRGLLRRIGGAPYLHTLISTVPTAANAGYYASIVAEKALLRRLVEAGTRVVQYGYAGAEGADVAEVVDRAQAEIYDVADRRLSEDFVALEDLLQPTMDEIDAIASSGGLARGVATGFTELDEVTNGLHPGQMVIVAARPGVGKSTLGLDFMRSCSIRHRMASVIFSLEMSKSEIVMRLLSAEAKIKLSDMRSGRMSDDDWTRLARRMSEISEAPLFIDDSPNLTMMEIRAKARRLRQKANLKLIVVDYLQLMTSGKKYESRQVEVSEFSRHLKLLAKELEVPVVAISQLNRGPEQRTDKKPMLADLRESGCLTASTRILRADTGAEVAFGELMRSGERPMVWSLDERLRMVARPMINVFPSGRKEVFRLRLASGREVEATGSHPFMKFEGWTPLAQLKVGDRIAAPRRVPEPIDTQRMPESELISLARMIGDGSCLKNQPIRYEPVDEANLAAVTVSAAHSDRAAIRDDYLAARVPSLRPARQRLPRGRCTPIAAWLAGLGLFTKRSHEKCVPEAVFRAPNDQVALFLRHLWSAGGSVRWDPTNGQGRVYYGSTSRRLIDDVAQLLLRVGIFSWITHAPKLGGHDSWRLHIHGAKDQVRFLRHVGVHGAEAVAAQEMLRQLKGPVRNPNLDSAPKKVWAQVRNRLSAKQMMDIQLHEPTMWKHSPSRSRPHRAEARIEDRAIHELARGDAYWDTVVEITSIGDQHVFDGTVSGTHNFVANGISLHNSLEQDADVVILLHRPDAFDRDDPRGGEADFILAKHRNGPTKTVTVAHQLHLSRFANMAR

Protein RecA = molecular target: T3, Protein RecA (Mycobacterium tuberculosis, UniProt P9WHJ3); test: Fluorescence Cell-Free Homogeneous Dose Retest to Identify Inhibitors of RecA-Intein Splicing Activity. [Related pubchem assays (depositor defined):AID2097, AID2223, AID489010, AID492950]; format: functional
T3 sequence (P9WHJ3 whole entry): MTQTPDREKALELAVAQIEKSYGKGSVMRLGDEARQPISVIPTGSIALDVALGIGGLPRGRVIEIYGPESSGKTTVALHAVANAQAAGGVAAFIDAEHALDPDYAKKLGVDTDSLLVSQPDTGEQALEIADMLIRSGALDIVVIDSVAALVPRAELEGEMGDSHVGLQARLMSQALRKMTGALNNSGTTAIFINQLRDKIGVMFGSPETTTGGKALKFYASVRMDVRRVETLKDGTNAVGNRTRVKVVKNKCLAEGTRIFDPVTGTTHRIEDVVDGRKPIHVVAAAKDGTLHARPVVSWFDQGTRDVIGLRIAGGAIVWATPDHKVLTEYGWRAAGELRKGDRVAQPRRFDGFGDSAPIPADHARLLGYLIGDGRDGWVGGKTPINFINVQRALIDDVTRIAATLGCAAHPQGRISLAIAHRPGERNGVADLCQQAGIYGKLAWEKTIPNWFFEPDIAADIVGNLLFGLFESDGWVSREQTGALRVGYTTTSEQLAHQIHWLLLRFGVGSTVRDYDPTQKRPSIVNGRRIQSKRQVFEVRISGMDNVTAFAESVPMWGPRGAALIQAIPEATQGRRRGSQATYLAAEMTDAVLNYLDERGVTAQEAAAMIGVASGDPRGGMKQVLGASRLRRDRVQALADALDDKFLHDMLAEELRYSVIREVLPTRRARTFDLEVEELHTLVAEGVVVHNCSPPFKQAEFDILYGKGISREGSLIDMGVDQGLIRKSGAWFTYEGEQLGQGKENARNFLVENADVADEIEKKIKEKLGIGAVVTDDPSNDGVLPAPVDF

Cytochrome P450 3A4 = Cytochrome P450 3A4 (Homo sapiens, UniProt P08684);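 further: CYP3A4 tested as one member of a cytochrome P450 panel screen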

Cc1cc(C(=O)NNC(=O)CCN2CCN(c3ccccc3)CC2)c2ccccc2n1
AC50 [1]: 5.94 µM (active)

CCOc1ccc(/C=C2/Sc3ccc(C(=O)N4CCN(C(=O)c5ccco5)CC4)cc3N(C)C2=O)cc1OC
EC50 [2]: 2.63 µM (active) | EC50 (Streptococcus): 5.98 µM (active) | EC50 [3]: 97.7 µM (active) | EC50 [4]: 105 µM (active) | EC50 [5]: > 120 µM (not active)

Oc1ccc(-c2onc3ccc(Cl)cc23)cc1
AC50 [1]: 6.97 µM (active)

O=C(NCC(=O)N1CCN(c2ccccc2)CC1)c1cccs1
AC50 [1]: 21.4 µM (active)

CCn1c(S)nnc1-c1ccccc1O
AC50 [1]: 9.17 µM (active)

CC1CC(C)CN(CCCNC(=O)c2ccc3c(c2)N(Cc2ccccc2)C(=O)c2ccccc2[S+]3[O-])C1 (configuration not stated)
EC50 [6]: 0.841 µM (active)

Sc1nnc(/C=C/c2ccccc2)o1
AC50 [1]: 29.9 µM (active)

CCOc1ccc(N2C(=O)NC(=O)/C(=C\c3ccccc3[N+](=O)[O-])C2=O)cc1
IC50 (Genome polyprotein): 30.5 µM (active)

c1coc(-c2nnc3sc(-c4cccs4)nn23)c1
IC50 (H9c2): 15.6 µM (active)

CCc1ccc(C(=O)c2cnc3ccc(OC)cc3c2N2CCN(CC)CC2)cc1
EC50 [6]: 5.96 µM (active)

COc1cccc(C(=O)N(C)CC2CCN(CCc3cccc(C(F)(F)F)c3)CC2)c1
EC50 [6]: 0.596 µM (active)

COc1ccccc1C(=O)NNC(=S)NC(=O)c1cc(OC)c(OC)c(OC)c1
EC50 [2]: 1.25 µM (active) | EC50 (Streptococcus): 2.5 µM (active) | EC50 [7]: 0.158 µM (active) | EC50 [8]: 6.32 µM (active) | EC50 [9]: 2.49 µM (active) | EC50 [10]: > 150 µM (inactive) | CC50 (Vero): 13.6 µM (active)

CCOC(=O)c1ccc(/[N+]([O-])=C/c2ccccc2)cc1
IC50 [11]: > 80 µM (inactive)

Cc1cccc(C(=O)N2CCc3cc(-c4csc(NC(=O)CN5CCCC5)n4)ccc32)c1
CC50 (Vero): > 25 µM (active)

CC(C)c1nnc(NC(=O)c2cccc(-n3cnnn3)c2)s1
IC50 [11]: 50 µM (inactive)

CCN(CC)CCCOc1ccc(Cl)c(Cl)c1
EC50 [6]: 2.37 µM (active)

CC(=O)n1cc([C@H]2C=C(C(=O)NCc3ccccc3)O[C@@H](OCc3ccc(CO)cc3)C2)c2ccccc21
EC50 [6]: 8.41 µM (active)

Cc1ccc2nc(O)c(CN(CCCN3CCOCC3)C(=O)Nc3ccc(Cl)cc3)cc2c1
IC50 (H9c2): > 79 µM (inactive)

Cc1c(/C=C/C(=O)c2ccc(Cl)s2)cnn1C
IC50 [11]: > 80 µM (inactive)

CC(NC(=O)CCSc1nc(-c2ccco2)cc(C(F)(F)F)n1)c1ccccc1 (configuration not stated)
AC50 (Cytochrome P450 2C9): 15.8 µM (inconclusive) | AC50 (Cytochrome P450 2D6): 15.8 µM (inconclusive)

CC1=NN(c2ccccc2)C(=O)/C1=C/c1cccc(C)c1
AC50 [12]: 3.59 µM (active) | IC50 (Genome polyprotein): 50.5 µM (active) | EC50 (Protein RecA): 1.58 µM (active)

Cc1cccc(C)c1OCCn1nc(C(=O)O)c2ccccc2c1=O
IC50 (H9c2): > 79 µM (inactive)

O=c1oc2cc(Br)ccc2n1CSC1=NCCS1
AC50 [1]: 0.033 µM (active)

CN1CCc2nc3ccccc3c(C(=O)OCC(=O)N(CCC#N)c3ccccc3)c2C1
IC50 (H9c2): > 79 µM (inactive)

COc1ccc(-c2csc(NC(=O)c3cccc(N4C(=O)CCC4=O)c3)n2)cc1OC
IC50 (H9c2): > 79 µM (inactive)

CC(C)c1ccc(NC2CCCN(C(=O)c3cnc4ccccn4c3=O)C2)cc1 (configuration not stated)
AC50 [1]: 8.31 µM (active)

CCOC(=O)C1=C(C)N=C(C)C(=C(O)OCC)C1C(=O)OCC(=O)NC(C)C (configuration not stated)
IC50 (H9c2): > 79 µM (inactive)

CCN(CC(=O)Nc1cc(Cl)ccc1C)C(=O)C1CCN(c2ncnc3sc(C)c(C)c23)CC1
IC50 (H9c2): 12.7 µM (active)

O=C(N/N=C\c1ccccn1)c1cccc(C(=O)N/N=C\c2ccccn2)n1
IC50 (H9c2): > 79 µM (inactive)

Cc1ncc(CO)c2cc(C(=O)Nc3ccccc3Cl)/c(=N/c3cccc(C(N)=O)c3)oc12
IC50 (H9c2): 12.4 µM (active)

COc1cccc(/C=N/NC(=O)CSc2cccc3cccnc23)c1
IC50 [11]: > 80 µM (inactive)

COc1cc(/C=N/N2CCCCC2)cc([N+](=O)[O-])c1O
AC50 [1]: 2.71 µM (active)

C=CCN1CCc2cccc3c2[C@@H]1Cc1ccc(O)c(O)c1-3
AC50 (Cytochrome P450 2C9): 31.6 µM (inconclusive) | AC50 (Cytochrome P450 3A4): 31.6 µM (inconclusive) | AC50 (Cytochrome P450 2D6): 31.6 µM (inconclusive)

O=[N+]([O-])c1ccc(N/N=C/c2cn(Cc3ccc(F)cc3)c3ccccc23)nc1
EC50 [3]: 12 µM (active) | EC50 [4]: 25.8 µM (active) | EC50 [5]: 15.2 µM (active)

COc1ccc(-n2cc(CNCCCn3ccnc3)c(-c3cccc(F)c3)n2)cc1
CC50 (Vero): > 25 µM (active)
